Legend:
[1] = method code SF-AS, from DOI: 10.1007/s11095-005-4582-3, PMID: 15948031

logP	logP [1]	Structure (SMILES)
1.83	–	COc1c(C=O)ssc1=O
1.81	–	O=Cc1cc(=O)ss1
2.53	–	O=Cc1cc(=S)ss1
–	3.43	O=Cc1ssc(=S)c1-c1ccccc1
–	2.95	O=Cc1ssc(=S)c1Cl
3.31	–	CC(=O)c1ssc(=S)c1-c1ccccc1
–	2.56	COc1c(C=O)ssc1=S
–	2.16	O=Cc1ssc(=O)c1Cl
1.58	–	CC(=O)c1ssc(=O)c1C
2.94	–	O=Cc1ssc(=O)c1-c1ccccc1
2.18	–	CC(=O)c1cc(=S)ss1
–	3.15	CCc1c(C=O)ssc1=S
3.21	–	CCc1c(C(C)=O)ssc1=S
–	1.62	Cc1c(C=O)ssc1=O
2.12	–	CCc1c(C(C)=O)ssc1=O
2.87	–	Cc1c(C=O)ssc1=S
2.5	–	CC(=O)c1ssc(=O)c1-c1ccccc1
–	2.58	CCc1c(C=O)ssc1=O
1.14	–	CC(=O)c1cc(=O)ss1

From the SangsterLogP compilation
